Data published in ChEMBL document CHEMBL5543136, “Discovery of Novel Heterotricyclic Compounds as DNA-Dependent Protein Kinase (DNA-PK) Inhibitors with Enhanced Chemosensitivity, Oral Bioavailability, and the Ability to Potentiate Cancer Immunotherapy” (J Med Chem, 2024).
Calls of active or inactive are those of the source. The calls are words filed in the database; no cut-off is given here.

Assays:
Jurkat [1] = assay: Induction of cell cycle arrest in human Jurkat cells assessed as increase in G2/M phase cells at 1 uM incubated for 24 hrs in presence of doxorubicin by PI staining based flow cytometric analysis; assay type: functional
[2] = Toxicity in C57BL/6 mouse implanted with mouse B16-F10 cells assessed as effect on body weight at 10 mg/kg, ip QD co-administered with PD-L1 antibody for 13 days; assay type: organism-based; details: in vivo, 312 h, time 13 day
HepG2 [3] = assay: Inhibition of DNA damage repair in human HepG2 cells assessed as reduction in gammaH2AX expression level by Western blot analysis; assay type: functional, cell-based; details: dose 10-40 µM
[4] = Selectivity ratio of IC50 for antiproliferative activity against mouse CT26 cells to IC50 for synergistic antiproliferative activity against mouse CT26 cells in presence of doxorubicin; assay type: functional
HepG2 [5] = assay: Inhibition of DNA damage repair in human HepG2 cells assessed as reduction in gammaH2AX fluorescence intensity by DAPI staining based immunofluorescence analysis; assay type: functional, cell-based; details: dose 10-40 µM
[6] = Tmax in male Sprague-Dawley rat at 10 mg/kg, po measured after 48 hrs by LC-MS/MS analysis; assay type: ADME, organism-based; details: in vivo
[7] = AUC (0 to infinity) in male Sprague-Dawley rat at 2 mg/kg, iv measured after 48 hrs by LC-MS/MS analysis; assay type: ADME, organism-based; details: in vivo
[8] = Apparent volume of distribution in male Sprague-Dawley rat at 2 mg/kg, iv measured after 48 hrs by LC-MS/MS analysis; assay type: ADME, organism-based; details: in vivo, read-out: Vz
[9] = Cmax in male Sprague-Dawley rat at 10 mg/kg, po measured after 48 hrs by LC-MS/MS analysis; assay type: ADME, organism-based; details: in vivo
B16-F10 [10] = assay: Antiproliferative activity against mouse B16-F10 cells assessed as reduction in cell viability incubated for 48 hrs by CCK-8 assay; assay type: functional, cell-based; details: B16-F10, 48 h
[11] = Selectivity ratio of IC50 for antiproliferative activity against mouse B16-F10 cells to IC50 for synergistic antiproliferative activity against mouse B16-F10 cells in presence of doxorubicin; assay type: functional
[12] = Selectivity ratio of IC50 for antiproliferative activity against human Jurkat cells to IC50 for synergistic antiproliferative activity against human Jurkat cells in presence of doxorubicin; assay type: functional
B16-F10 [13] = assay: Synergistic antiproliferative activity against mouse B16-F10 cells assessed as reduction in cell viability incubated for 48 hrs in presence of doxorubicin by CCK-8 assay; assay type: functional, cell-based; details: B16-F10, 48 h
[14] = Toxicity in BALB/c mouse implanted with mouse CT26 cells assessed as weight loss at 10 mg/kg, ip administered once daily for 21 days; assay type: organism-based; details: in vivo, 504 h, time 21 day
Cell membrane = assay: Induction of mitochondrial membrane potential loss in human Jurkat cells at 1 uM incubated for 24 hrs in presence of doxorubicin by JC-1 staining based flow cytometric analysis; assay type: cell membranes
Jurkat [15] = assay: Inhibition of DNA damage repair in human Jurkat cells assessed as reduction in gammaH2AX expression level by Western blot analysis; assay type: functional, cell-based; details: dose 0.1-5 µM
CT26 [16] = assay: Antiproliferative activity against mouse CT26 cells assessed as reduction in cell viability incubated for 48 hrs by CCK-8 assay; assay type: functional, cell-based; details: CT26, 48 h
[17] = AUC (0 to infinity) in male Sprague-Dawley rat at 10 mg/kg, po measured after 48 hrs by LC-MS/MS analysis; assay type: ADME, organism-based; details: in vivo
[18] = AUC (0 to t) in male Sprague-Dawley rat at 10 mg/kg, po measured after 48 hrs by LC-MS/MS analysis; assay type: ADME, organism-based; details: in vivo
[19] = Half-life in male Sprague-Dawley rat at 2 mg/kg, iv measured after 48 hrs by LC-MS/MS analysis; assay type: ADME, organism-based; details: in vivo
Jurkat [20] = assay: Synergistic antiproliferative activity against human Jurkat cells assessed as reduction in cell viability incubated for 48 hrs in presence of doxorubicin by CCK-8 assay; assay type: functional, cell-based
CT26 [21] = assay: Synergistic antiproliferative activity against mouse CT26 cells assessed as reduction in cell viability incubated for 48 hrs in presence of doxorubicin by CCK-8 assay; assay type: functional, cell-based; details: CT26, 48 h
[22] = Toxicity in BALB/c mouse implanted with mouse CT26 cells assessed as death at 10 mg/kg, ip QD co-administered with doxorubicin for 21 days; assay type: organism-based; details: in vivo, 504 h, time 21 day
B16-F10 [23] = assay: Antitumor activity against mouse B16-F10 cells implanted in C57BL/6 mouse assessed as tumor growth inhibition at 10 mg/kg, ip QD co-administered with PD-L1 antibody for 13 days relative to control; assay type: functional; details: B16-F10, 312 h, time 13 day, read-out: TGI
[24] = Oral bioavailability in male Sprague-Dawley rat at 10 mg/kg measured after 48 hrs by LC-MS/MS analysis; assay type: ADME, organism-based; details: in vivo
[25] = AUC (0 to t) in male Sprague-Dawley rat at 2 mg/kg, iv measured after 48 hrs by LC-MS/MS analysis; assay type: ADME, organism-based; details: in vivo
B16-F10 [26] = assay: Immunomodulatory activity in mouse B16-F10 cells implanted in C57BL/6 mouse assessed as percentage of CD3 positive CD4 positive cells in tumor at 10 mg/kg, ip QD co-administered with SWS1 for 13 days by flow cytometric analysis (reference value: 0.86%); assay type: functional; details: time 13 day
[27] = Clearance in male Sprague-Dawley rat at 10 mg/kg, po measured after 48 hrs by LC-MS/MS analysis; assay type: ADME, organism-based; details: in vivo
[28] = Apparent volume of distribution in male Sprague-Dawley rat at 10 mg/kg, po measured after 48 hrs by LC-MS/MS analysis; assay type: ADME, organism-based; details: in vivo
B16-F10 [29] = assay: Immunomodulatory activity in mouse B16-F10 cells implanted in C57BL/6 mouse assessed as percentage of CD3 positive CD8 positive cells in tumor at 10 mg/kg, ip QD co-administered with PD-L1 antibody for 13 days by flow cytometric analysis (reference value: 0.99%); assay type: functional; details: time 13 day
B16-F10 [30] = assay: Antitumor activity against mouse B16-F10 cells implanted in C57BL/6 mouse assessed as tumor growth inhibition at 10 mg/kg, ip administered once daily for 13 days relative to control; assay type: functional; details: B16-F10, 312 h, time 13 day, read-out: TGI
[31] = Toxicity in C57BL/6 mouse implanted with mouse B16-F10 cells assessed as effect on body weight at 10 mg/kg, ip administered once daily for 13 days; assay type: organism-based; details: in vivo, 312 h, time 13 day
B16-F10 [32] = assay: Immunomodulatory activity in mouse B16-F10 cells implanted in C57BL/6 mouse assessed as percentage of CD3 positive CD8 positive cells in tumor at 10 mg/kg, ip QD co-administered with SWS1 for 13 days by flow cytometric analysis (reference value: 0.99%); assay type: functional; details: time 13 day
CT26 [33] = assay: Antitumor activity against mouse CT26 cells implanted in BALB/c mouse assessed as reduction in tumor weight at 10 mg/kg, ip administered once daily for 21 days relative to control; assay type: functional; design: scale not given: the % may be the effect or the level left; details: time 21 day
Jurkat [34] = assay: Antiproliferative activity against human Jurkat cells assessed as reduction in cell viability incubated for 48 hrs by CCK-8 assay; assay type: functional, cell-based
[35] = Toxicity in C57BL/6 mouse implanted with mouse B16-F10 cells assessed as change in spleen histopathology at 10 mg/kg, ip administered once daily for 13 days by H&E staining based analysis; assay type: organism-based; details: in vivo, 312 h, time 13 day
[36] = biological target: DNA-dependent protein kinase catalytic subunit (Homo sapiens, UniProt P78527); assay: Inhibition of human full-length DNA-PK using EPPLSQEAFADLWKK as substrate incubated for 60 mins in presence of ATP by ADP-Glo kinase assay
DNA-dependent protein kinase catalytic subunit, sequence (P78527 whole entry): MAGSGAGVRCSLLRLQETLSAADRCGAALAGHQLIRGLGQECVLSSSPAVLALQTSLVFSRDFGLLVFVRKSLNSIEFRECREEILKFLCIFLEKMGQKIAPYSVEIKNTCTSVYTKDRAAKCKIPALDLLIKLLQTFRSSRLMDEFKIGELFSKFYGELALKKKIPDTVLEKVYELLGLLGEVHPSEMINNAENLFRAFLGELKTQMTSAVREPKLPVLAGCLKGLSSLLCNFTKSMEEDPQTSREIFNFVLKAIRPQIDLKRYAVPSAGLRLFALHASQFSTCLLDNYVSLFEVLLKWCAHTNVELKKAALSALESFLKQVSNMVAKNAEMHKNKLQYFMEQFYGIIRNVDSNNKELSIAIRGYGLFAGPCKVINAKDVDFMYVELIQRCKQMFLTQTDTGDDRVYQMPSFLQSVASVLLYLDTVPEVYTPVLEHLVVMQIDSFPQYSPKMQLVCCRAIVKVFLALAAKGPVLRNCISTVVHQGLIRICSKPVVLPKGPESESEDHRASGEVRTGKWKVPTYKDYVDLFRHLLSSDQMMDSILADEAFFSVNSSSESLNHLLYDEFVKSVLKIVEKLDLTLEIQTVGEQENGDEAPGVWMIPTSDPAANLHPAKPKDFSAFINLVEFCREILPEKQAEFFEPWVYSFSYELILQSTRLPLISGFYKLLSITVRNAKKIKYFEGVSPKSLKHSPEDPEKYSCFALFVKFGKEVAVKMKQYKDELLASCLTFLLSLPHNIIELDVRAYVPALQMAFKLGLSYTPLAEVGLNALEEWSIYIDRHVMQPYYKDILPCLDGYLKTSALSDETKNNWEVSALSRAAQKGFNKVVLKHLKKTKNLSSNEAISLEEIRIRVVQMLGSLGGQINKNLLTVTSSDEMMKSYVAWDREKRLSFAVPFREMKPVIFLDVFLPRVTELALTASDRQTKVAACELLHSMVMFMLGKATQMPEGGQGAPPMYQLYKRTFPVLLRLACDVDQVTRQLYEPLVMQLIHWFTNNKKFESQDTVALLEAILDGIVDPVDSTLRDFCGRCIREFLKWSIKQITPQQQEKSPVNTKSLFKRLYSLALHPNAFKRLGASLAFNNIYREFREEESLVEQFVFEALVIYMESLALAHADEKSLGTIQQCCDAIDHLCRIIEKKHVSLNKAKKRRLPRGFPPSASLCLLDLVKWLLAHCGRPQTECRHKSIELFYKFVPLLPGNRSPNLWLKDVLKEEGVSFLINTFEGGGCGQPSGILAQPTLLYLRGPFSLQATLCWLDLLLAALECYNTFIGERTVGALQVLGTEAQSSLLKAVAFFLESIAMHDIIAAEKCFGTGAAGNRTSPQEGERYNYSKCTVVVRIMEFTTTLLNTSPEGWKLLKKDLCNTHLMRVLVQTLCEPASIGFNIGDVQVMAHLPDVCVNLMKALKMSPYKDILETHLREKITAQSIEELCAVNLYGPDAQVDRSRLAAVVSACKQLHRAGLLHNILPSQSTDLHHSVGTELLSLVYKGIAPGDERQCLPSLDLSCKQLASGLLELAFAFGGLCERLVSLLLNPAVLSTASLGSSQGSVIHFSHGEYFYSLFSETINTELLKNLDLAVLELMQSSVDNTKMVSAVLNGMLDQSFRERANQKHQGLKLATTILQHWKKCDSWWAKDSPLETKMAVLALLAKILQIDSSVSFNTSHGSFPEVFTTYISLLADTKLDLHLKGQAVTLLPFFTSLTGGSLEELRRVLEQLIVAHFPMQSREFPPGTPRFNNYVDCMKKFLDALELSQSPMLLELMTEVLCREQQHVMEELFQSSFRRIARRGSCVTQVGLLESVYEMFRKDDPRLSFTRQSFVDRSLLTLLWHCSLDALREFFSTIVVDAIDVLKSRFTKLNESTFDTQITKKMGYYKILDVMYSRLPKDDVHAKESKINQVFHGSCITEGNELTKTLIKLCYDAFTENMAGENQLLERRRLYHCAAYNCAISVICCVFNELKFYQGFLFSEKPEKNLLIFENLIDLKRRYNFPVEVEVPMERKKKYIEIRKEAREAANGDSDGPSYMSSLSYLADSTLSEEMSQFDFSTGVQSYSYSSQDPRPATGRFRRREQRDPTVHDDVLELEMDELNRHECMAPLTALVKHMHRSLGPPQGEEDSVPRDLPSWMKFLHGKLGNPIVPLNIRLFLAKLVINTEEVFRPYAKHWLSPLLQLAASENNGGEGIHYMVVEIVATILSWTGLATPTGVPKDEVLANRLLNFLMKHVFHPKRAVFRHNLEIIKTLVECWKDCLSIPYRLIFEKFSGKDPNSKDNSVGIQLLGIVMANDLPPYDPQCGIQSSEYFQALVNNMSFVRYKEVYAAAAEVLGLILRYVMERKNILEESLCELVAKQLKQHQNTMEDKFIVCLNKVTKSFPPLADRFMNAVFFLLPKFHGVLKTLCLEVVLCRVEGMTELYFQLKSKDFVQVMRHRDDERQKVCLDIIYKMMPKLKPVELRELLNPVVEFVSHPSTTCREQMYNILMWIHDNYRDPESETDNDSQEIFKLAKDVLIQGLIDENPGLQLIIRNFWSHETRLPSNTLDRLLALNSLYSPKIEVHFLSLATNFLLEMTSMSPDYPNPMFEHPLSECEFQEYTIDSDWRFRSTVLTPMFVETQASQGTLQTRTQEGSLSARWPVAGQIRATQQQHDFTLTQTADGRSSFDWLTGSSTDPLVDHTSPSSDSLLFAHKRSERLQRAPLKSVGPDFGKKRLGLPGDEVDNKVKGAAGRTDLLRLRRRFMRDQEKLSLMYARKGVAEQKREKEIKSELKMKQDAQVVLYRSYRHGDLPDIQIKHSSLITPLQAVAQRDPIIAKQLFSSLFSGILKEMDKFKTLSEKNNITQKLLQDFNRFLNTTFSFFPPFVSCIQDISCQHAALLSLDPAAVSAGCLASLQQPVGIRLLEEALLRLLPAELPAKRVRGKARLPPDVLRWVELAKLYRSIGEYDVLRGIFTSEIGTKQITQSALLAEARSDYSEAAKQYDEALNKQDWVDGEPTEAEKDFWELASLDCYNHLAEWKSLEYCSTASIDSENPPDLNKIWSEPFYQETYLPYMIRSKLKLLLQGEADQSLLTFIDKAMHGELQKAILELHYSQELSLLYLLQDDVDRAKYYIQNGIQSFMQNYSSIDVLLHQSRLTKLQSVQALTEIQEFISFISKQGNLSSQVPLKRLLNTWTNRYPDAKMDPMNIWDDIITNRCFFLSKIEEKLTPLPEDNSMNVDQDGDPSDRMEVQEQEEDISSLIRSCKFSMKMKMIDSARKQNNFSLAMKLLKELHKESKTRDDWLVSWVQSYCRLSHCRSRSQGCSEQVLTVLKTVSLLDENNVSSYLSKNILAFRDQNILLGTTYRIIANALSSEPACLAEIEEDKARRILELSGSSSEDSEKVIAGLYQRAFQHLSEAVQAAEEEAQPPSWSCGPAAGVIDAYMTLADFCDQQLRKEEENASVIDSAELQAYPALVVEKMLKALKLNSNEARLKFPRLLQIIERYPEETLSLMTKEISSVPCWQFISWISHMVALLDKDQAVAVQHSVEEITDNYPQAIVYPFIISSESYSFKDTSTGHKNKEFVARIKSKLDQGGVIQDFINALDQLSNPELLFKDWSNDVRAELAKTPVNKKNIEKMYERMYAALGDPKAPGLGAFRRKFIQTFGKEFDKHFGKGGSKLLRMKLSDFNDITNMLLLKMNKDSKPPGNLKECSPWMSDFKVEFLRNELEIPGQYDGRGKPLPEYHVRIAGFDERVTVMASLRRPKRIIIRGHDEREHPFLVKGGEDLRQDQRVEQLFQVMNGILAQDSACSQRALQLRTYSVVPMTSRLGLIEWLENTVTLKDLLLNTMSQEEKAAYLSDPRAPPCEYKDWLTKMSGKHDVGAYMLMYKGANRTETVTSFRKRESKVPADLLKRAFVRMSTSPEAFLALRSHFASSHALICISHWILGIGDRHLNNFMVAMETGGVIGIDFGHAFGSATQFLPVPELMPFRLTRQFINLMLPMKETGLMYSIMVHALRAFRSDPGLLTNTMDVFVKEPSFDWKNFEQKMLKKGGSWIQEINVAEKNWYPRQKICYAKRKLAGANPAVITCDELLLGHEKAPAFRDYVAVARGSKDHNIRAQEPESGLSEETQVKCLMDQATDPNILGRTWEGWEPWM

With `Cc1cc2cccnc2cc1Nc1ncc2c(n1)N(C1CCOCC1)Cc1nncn1-2` the Activity (Jurkat [1]) was “Active”, the Activity [2] was “Non-Toxic” and the inhibition (HepG2 [3]) was “Dose-Dependent Effect”. For the same molecule, the “Ratio IC50” value [4] was 4.5, the inhibition (HepG2 [5]) was “Dose-Dependent Effect” and the Tmax [6] was 1.4 h. It also gave an AUC(0-inf) [7] of 605 ng·h/mL, a Vd [8] of 4.7 L/kg and a Cmax [9] of 324 ng/mL. The IC50 (B16-F10 [10]) was 10.3 µM, the “Ratio IC50” value [11] was 2.1 and the “Ratio IC50” value [12] was 30. The IC50 (B16-F10 [13]) was 4.9 µM, the Activity [14] was “Non-Toxic” and the Activity (Cell membrane) was “Active”. For the same molecule, the inhibition (Jurkat [15]) was “Dose-Dependent Effect”, the IC50 (CT26 [16]) was 4.1 µM and the AUC(0-inf) [17] was 962 ng·h/mL. It also gave an AUC(0-t) at 48 h [18] of 950 ng·h/mL, a half-life [19] of 1 h and an IC50 (Jurkat [20]) of 0.02 µM. For the same molecule, the IC50 (CT26 [21]) was 9.7 µM, the Activity [22] was “Non-Toxic” and the inhibition in vivo at 10 mg/kg (B16-F10 [23]) was 60.5%. It also gave a bioavailability [24] of 31.8%, an AUC(0-t) at 48 h [25] of 604 ng·h/mL and an Activity (B16-F10 [26]) of 4.02%. It also gave a CL/F [27] of 210 mL/min/kg, a Vz [28] of 38.8 L/kg and an Activity (B16-F10 [29]) of 5.17%. The inhibition in vivo at 10 mg/kg (B16-F10 [30]) was 35.9%, the Activity [31] was “Non-Toxic” and the Activity (B16-F10 [32]) was 5.17%. The Activity (CT26 [33]) was 30.8%, the IC50 (Jurkat [34]) was 0.6 µM and the Activity [35] was “Non-Toxic”. The IC50 [36] was 0.00011 µM.
